Measurements as given in US10640545B2 (THE GOVERNORS OF THE UNIVERSITY OF ALBERTA, priority 2017, dated 2020).
Where a SMILES comes first, the peptide text is derived from it. [ ]: non-standard residue; d: D form. Phe(4-Br) = N[C@@H](Cc1ccc(Br)cc1)C(=O)O; NMeL = CN[C@@H](CC(C)C)C(=O)O; Nle = CCCC[C@H](N)C(=O)O; Aib = CC(C)(N)C(=O)O

Tests used:
NEP [1] = biological target: T1, NEP (Homo sapiens, UniProt P08473); experiment: Kinetic parameters for NEP cleavage; type: biochemical; design: purchased Sino Biological; details: enzyme NEP
T1 sequence (P08473 whole entry): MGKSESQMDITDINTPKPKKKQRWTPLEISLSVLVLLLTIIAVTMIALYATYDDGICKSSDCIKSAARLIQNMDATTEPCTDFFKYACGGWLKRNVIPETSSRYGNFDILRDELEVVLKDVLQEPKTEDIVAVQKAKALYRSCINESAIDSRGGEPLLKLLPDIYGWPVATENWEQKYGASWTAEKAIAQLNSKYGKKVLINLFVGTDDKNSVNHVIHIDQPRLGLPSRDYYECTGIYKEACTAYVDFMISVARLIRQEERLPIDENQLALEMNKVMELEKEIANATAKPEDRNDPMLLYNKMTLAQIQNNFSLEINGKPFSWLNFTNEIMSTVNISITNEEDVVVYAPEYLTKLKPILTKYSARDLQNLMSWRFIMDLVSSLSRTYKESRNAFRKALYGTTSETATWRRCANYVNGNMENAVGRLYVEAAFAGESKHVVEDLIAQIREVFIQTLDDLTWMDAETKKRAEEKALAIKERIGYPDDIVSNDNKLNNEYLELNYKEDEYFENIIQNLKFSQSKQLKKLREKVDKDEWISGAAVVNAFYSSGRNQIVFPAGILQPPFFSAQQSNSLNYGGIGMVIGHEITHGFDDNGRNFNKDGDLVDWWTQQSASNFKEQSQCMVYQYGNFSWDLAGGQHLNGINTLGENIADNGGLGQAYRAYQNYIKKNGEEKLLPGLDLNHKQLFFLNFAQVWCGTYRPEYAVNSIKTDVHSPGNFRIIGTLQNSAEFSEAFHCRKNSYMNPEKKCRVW

Ldlr^−/− mice = experiment: Angiotensin II-induced abdominal aortic aneurysm; type: in vivo
Method: Experimental Animals and Protocols. Male LDL receptor deficient (Ldlr^−/−) mice were generated and bred in C57BL/6 background. All animal experiments were carried out in accordance with the Canadian Council on Animal Care Guidelines, and animal protocols were reviewed and approved by the Animal Care and Use Committee at the University of Alberta.
Alzet micro-osmotic pump (model 1002 or 1004; Durect Co.) was implanted subcutaneously at the dorsum of the neck to infuse Ang II (1.5 mg/kg^−1d^−1) or vehicle (saline) for 28 days in high fat fed Ldlr^−/− mice.
After 4 weeks of Ang II or saline infusion, mice underwent whole body perfuse-fixation, via the left ventricle, with 10% buffered formalin (80 mmHg, 20 min). […] Collagen positive area was quantified by the morphometric analysis using the Metamorph Basic (version 7.7.0.0) software. In situ DNA fragmentation was detected in 5-μm thick FFPE sections of aorta using the commercially available terminal deoxynucleotidyl transferase-mediated dUTP nick-end labeling (TUNEL) assay kit according to manufacturer's instructions (Invitrogen) as previously described. […] Thickness of the medial layer of the aorta was measured in calibrated images as the mean distance between the external elastin lamella and the internal elastin lamella from 8 randomly selected fields of the cross-section of an aorta using the Metamorph Basic software (version 7.7.0). […]

anesthetized mice = experiment: Blood pressure assay in anesthetized mice; type: in vivo; details: 1.4 μM/kg body weight injected, SBP, DBP, MABP
How it was run: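 Mice were anaesthetized with 1.5% isoflurane/oxygen and kept at 36 °C. Peptide (1.4 μM/kg body weight) or saline was injected via the right jugular vein. Arterial pressure and heart rate were recorded continuously through a catheter in the aorta via the right carotid artery over 60 min and reported as SBP, DBP, MABP and HR.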

NEP [2] = biological target: T1, NEP; experiment: Neprilysin inhibition assay (degradation of 1 after preincubation with peptide); type: biochemical; design: purchased Sino Biological; details: preincubation of NEP with equimolar peptide
Method: This experiment investigates the ability of synthetic peptides 8-19 to inhibit the inherent proteolytic activity of NEP.
Assays were performed in duplicate (n=2) for each time point.

In the case of `CSCC[C@H](NC(=O)[C@@H]1CCCN1C(=O)CNC(=O)[C@H](CCCCN)NC(=O)[C@H](Cc1cnc[nH]1)NC(=O)[C@H](CO)NC(=O)[C@H](CC(C)C)NC(=O)[C@H](CCCNC(=N)N)NC(=O)[C@@H]1CCCN1C(=O)[C@H](CCCNC(=N)N)NC(=O)[C@H](CCC(N)=O)NC(=O)[C@H](CCCNC(=N)N)NC(=O)[C@H](CCCNC(=N)N)NC(=O)[C@H](Cc1ccccc1)NC(=O)[C@@H](N)CCCCN)C(=O)N1CCC[C@H]1C(=O)N[C@@H](Cc1ccccc1)C(=O)O` [Peptide 2, reference compound], the Km (NEP [1]) is reported as 190 ± 40 µM and the “kcat” value (NEP [1]) is reported as 3.4 ± 0.3 s⁻¹.
In the case of `CCCC[C@H](NC(=O)[C@@H]1CCCN1C(=O)CNC(=O)[C@H](CCCCN)NC(=O)[C@H](Cc1c[nH]cn1)NC(=O)[C@H](CO)NC(=O)[C@H](CC(C)C)N(C)C(=O)[C@H](CCCNC(=N)N)NC(=O)[C@@H]1CCCN1C(=O)[C@H](CCCNC(=N)N)NC(=O)[C@H](CCC(N)=O)NC(=O)[C@H](CCCNC(=N)N)NC(=O)[C@H](CCCNC(=N)N)NC(=O)[C@H](Cc1ccccc1)NC(=O)[C@@H](N)CCCCN)C(=O)NC(C)(C)C(=O)N[C@@H](Cc1ccc(Br)cc1)C(=O)O` [Peptide 11] (H-KFRRQRPR[NMeL]SHKGP[Nle][Aib][Phe(4-Br)]-OH; C-terminus assumed), the “oxidative stress (DHE fluorescence and NADPH oxidase activity)” value (Ldlr^−/− mice; aorta of Ldlr^−/− mice, Ang II + peptide) is reported as “suppression of oxidative stress”, the “formation of abdominal aortic aneurysm” value (Ldlr^−/− mice; high fat fed Ldlr^−/− mice, Ang II 1.5 mg/kg/d 28 days, peptide 3 mg/kg/d intraperitoneal 28 days) is reported as “markedly prevented the formation of abdominal aortic aneurysm” and the “blood pressure lowering (hypotensive) effect” value (anesthetized mice) is reported as “potent hypotensive activity that rivaled or bested that of native 2 or A2 variant 5”. The “inhibition of the proteolytic activity of NEP” value (NEP [2]) was “no ability to inhibit the inherent activity of NEP”.
